Test results: US20040248914A1, “Method for the treatment of overactive bladder” (priority 2001, published 2004)
Several values for one entry are separate records, joined by “and”; a condition that tells them apart may be missing. Identical values can stand only once.

Legend:
human NK2 receptors = target: T1, human NK2 receptors (Homo sapiens, UniProt P21452); assay: In vitro receptor binding assay, [3H]NKA in MEL cell membranes expressing cloned human NK2 receptors; details: inhibition of [3H]NKA binding to cloned hNK2 receptors in MEL cell membranes; read-out: hNK2 (Ki expressed as -Log Molar) (converted)
T1 construct: expressed in transfected cells; host or cells: MEL cells (membranes)
T1 sequence (P21452 1-398): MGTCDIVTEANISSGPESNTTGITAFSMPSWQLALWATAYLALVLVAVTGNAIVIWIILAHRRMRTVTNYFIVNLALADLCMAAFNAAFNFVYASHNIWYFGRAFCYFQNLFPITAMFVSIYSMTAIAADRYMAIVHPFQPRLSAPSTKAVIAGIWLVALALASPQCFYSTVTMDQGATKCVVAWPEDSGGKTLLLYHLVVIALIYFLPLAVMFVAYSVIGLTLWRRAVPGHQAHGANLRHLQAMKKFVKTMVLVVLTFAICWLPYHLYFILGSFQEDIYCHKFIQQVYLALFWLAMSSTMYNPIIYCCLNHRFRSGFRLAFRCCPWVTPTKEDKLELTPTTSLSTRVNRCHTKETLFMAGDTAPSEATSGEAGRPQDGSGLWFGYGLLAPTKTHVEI
Method: (§1) Preparation of Membranes from MEL Cells Transfected with Cloned Human NK1 or NK2 Receptors:
(§2) The cloning of the human lung NK1 and NK2 receptors was achieved as described by Hopkins, et al., Biochem. Biophys. Res. Commun. 180: 1110-1117 (1991), and Graham, et al., Biochem. Biophys. Res. Commun. 177: 8-16 (199.1). Heterologous expression and scale-up growth of MEL cells transfected with human tachykinin receptors was performed as described for NK2 receptors by Aharony, et al., Mol. Pharmacol. 45: 9-19, 1994.
(§3) Membranes from recombinant MEL cells expressing NK1 or NK2 receptors were prepared as described by Hopkins, et al., (1991). Briefly, cells were homogenized at 4° C. (Brinkman PT-20 Polytron, setting 3, with one 15 sec burst on ice), in a buffer consisting of 50 mM Tris-HCl (pH7.4), 5 mM KCl, 120 mM NaCl, 10 mM EDTA and containing several protease inhibitors (1 mM phenylmethylsulfonylfluoride; 0.1 mg/ml soybean trypsin inhibitor, and 1 mM iodoacetamide). The homogenate was centrifuged at 1200×g for 45 min at 4° C. to remove cell debris. The supernatant was centrifuged at 48,000×g for 45 min at 4° C. The pellet was resuspended with a glass-Teflon motorized homogenizer in 30 volumes of ice-cold 50 mM Tris-HCl (pH 7.4) buffer.
(§4) Ligand binding assays with [^3H]NKA in MEL cells expressing cloned NK2 receptors or (^3H]SP in MEL cells expressing cloned NK1 receptors, were conducted generally as described by Aharony, et al., Mol. Pharmacol. 45: 9-19, 1994, Aharony, et al., Neuropeptides 23: 121-130 (1992) and Aharony, et al., J. Pharmacol. Exp. Ther. 259: 146-155 (1991). In brief, incubations were carried out in assay buffer containing membranes, test compounds, and [^3H] ligand (1.0-1.5 nM). In competition experiments, mixtures (0.315 mL) containing various concentrations of competing agents (agonists, antagonists, or vehicle), were incubated at 25° C. for 30 min., with or without 1 μM unlabeled homogenous ligand (NKA or SP), to define non-specific binding. Reactions were initiated by adding membranes (0.1-0.15 mg protein/final concentration) and were conducted in duplicate. Saturation and kinetic experiments were conducted in triplicate. Separation of receptor-bound and free ligand was accomplished by dilution with 1 mL of wash buffer (20 mM Tris-HCl, pH 7.5) followed immediately by vacuum filtration with a total volume of 10 mL of wash buffer (utilizing a Brandel Cell Harvester MB-48R with Whatman GF/B filters presoaked in 0.1% polyethylenimine).
(§5) The ability of compounds disclosed herein to inhibit the binding of [^3H] ligand is shown by the results disclosed in Table 1.

human NK1 receptors = target: T2, human NK1 receptors (Homo sapiens, UniProt P25103); assay: In vitro receptor binding assay, [3H]SP in MEL cell membranes expressing cloned human NK1 receptors; details: for Ki: inhibition of [3H]SP binding to cloned hNK1 receptors in MEL cell membranes, read-out: hNK1 (Ki expressed as -Log Molar) (converted)
T2 construct: expressed in transfected cells; host or cells: MEL cells (membranes)
T2 sequence (P25103 whole entry): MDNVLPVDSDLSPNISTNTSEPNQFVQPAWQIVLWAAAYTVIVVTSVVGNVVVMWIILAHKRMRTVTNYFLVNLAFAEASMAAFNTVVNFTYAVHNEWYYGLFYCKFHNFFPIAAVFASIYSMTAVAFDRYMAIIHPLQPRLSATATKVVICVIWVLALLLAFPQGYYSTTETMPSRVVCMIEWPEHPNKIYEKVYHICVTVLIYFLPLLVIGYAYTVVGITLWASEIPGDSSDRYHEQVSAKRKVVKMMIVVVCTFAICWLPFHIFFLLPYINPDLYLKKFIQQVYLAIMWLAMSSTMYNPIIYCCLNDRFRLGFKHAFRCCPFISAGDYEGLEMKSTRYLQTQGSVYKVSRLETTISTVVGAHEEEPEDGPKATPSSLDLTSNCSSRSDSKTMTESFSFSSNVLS
Method: as §1, §2, §3, §4, §5

[1] = tested on: BANK-mediated GP bladder contraction; assay: BANK-induced bladder contraction in anesthetized guinea pigs; type: in vivo, guinea pig; details: for Inhibition of BANK-mediated GP bladder contraction (% Inhibition mediated by 52 nmol/kg administered orally): anesthetized female guinea pigs, 52 nmol/kg by gavage 1 hr before BANK, mean ± S.E.M.
Method: BANK-Induced Bladder Contraction in Anesthetized Guinea Pigs:
Female guinea pigs (300-450 g) were anesthetized by intramuscular administration of ketamine/xylazine mixture (3/10 mg/kg, respectively). The jugular vein was catheterized and the distal end of the catheter connected to a syringe for administration of compound where appropriate. Subsequently, the bladder was exposed through a midline abdominal incision, the ureters tied with 4-0 silk suture approximately 2 cm above the bladder, and cut above the ligature to allow drainage from the kidneys. Cannula were passed through the proximal urethra and bladder sphincter into the bladder lumen. The bladder was manually emptied, infused with 0.3 mL saline, and the catheter attached to a Gould p23 ID pressure transducer for recording changes in bladder pressure. An equilibration period of approximately 15 min was allowed for stabilization of the animals following surgical preparation. Thiorphan (10 mg/kg iv) was administered 15 minutes before agonist exposure to inhibit neutral endopeptidase 3.4.24.11.
To establish the oral effect of test compounds, animals were administered the test compounds (52 nmol/kg, 5% PEG 400-saline vehicle) by gavage 1 hr before administration of BANK. Changes in bladder contraction occurring in the presence and absence of test compound were recorded as an increase in intravesical bladder pressure on a Grass 7D Polygraph and expressed as the precentage change in response. Duration of action studies were performed following oral administration of test compounds (52 nmol/kg, 5% PEG 400-saline vehicle) at different times prior to administration of BANK. Responses were calculated as the percentage difference between the response to BANK in the presence of test compound compared with sham-treated controls. For all studies, each animal was administered a single dose of test compound. Experimental results were expressed as the mean plus or minus the Standard Error of the Mean (±S.E.M) percentage change from basal level.
The ability of compounds disclosed herein to inhibit bladder contractions induced with BANK is shown by the results disclosed in Table 1.

SMILES | Ki (human NK2 receptors) | Ki (human NK1 receptors) | Inhibition of BANK-mediated GP bladder contraction (% Inhibition mediated by 52 nmol/kg administered orally) [1] | Effect on bladder contraction induced by BANK (in words) ([1]; guinea pig, BANK-induced bladder contraction) | inhibition at 10 µM (human NK1 receptors; at 10 μM, [3H]SP binding, cloned hNK1 receptors)
CCN1CCCN(C2CCN(CC[C@H](CN(C)C(=O)c3ccccc3)c3ccc(Cl)c(Cl)c3)CC2)C1=O.O=C(O)CC(O)(CC(=O)O)C(=O)O [Example 2, (S)-N-[2-(3,4-Dichlorophenyl)-4-[4-(3-ethyl-2-oxoperhydro-pyrimidin-1-yl)-piperidino]butyl]-N-methylbenzamide citrate] | 0.245 nM | 112 nM | 26 ± 16% |  | 
CN(C[C@@H](CCN1CCC(N2CCCNC2=S)CC1)c1ccc(Cl)c(Cl)c1)C(=O)c1ccccc1.Cl.Cl [Example 5, (S)-N-[2-(3,4-Dichlorophenyl)-4-[4-(2-thioxoperhydro-pyrimidin-1-yl)-piperidino]butyl]-N-methylbenzamide dihydrochloride] | 1.38 nM | 251 nM | −9 ± 39% | increase the bladder contraction induced by BANK | 
CN(C[C@@H](CCN1CCC(N2CC(C)(C)CNC2=O)CC1)c1ccc(Cl)c(Cl)c1)C(=O)c1ccccc1 [Example 1, (S)-N-[2-(3,4-Dichlorophenyl)-4-[4-(2-oxo-5,5-dimethyl-perhydropyrimidin-1-yl)piperidino]butyl]-N-methylbenzamide] | 0.55 nM |  | 27 ± 13% |  | 90%
CN(C[C@@H](CCN1CCC(N2CCCNC2=O)CC1)c1ccc(Cl)c(Cl)c1)C(=O)c1ccc(F)cc1.O=C(O)CC(O)(CC(=O)O)C(=O)O [Example 4, (S)-N-[2-(3,4-Dichlorophenyl)-4-[4-(2-oxoperhydro-pyrimidin-1-yl)piperidino]butyl]-4-fluoro-N-methylbenzamide citrate] | 1.74 nM | 61.7 nM | 55 ± 11% |  | 
CCN(C[C@@H](CCN1CCC(N2CCCNC2=O)CC1)c1ccc(Cl)c(Cl)c1)C(=O)c1ccccc1 [Example 3, (S)-N-{2-(3,4-Dichloro-phenyl)-4-[4-(2-oxo-tetrahydro-pyrimidin-1-yl)-piperidin-1-yl]-butyl}-N-ethyl-benzamide free base] | 1.41 nM | 66.1 nM | 64% and 64 ± 6% |  | 
